# From patent US10233192B2, “Derivatives of uncialamycin, methods of synthesis and their use as antitumor agents” (priority 2013, dated 2019)
# Where two headings read alike, the source gives them in different places.
# What was measured:
# H226 cell line = assay: ATP luminescence (CellTiter-Glo) cell viability assay, H226; type: cell-based; conditions: Homo sapiens, read-out: EC50 (nM) H226
# Protocol: (§1) An ATP luminescence assay was used, the procedure being as follows: Cells were seeded at 1×10^3 cells/well in 96-well plates for 3 h for ATP CellTiter^Glo™ assays, respectively. Serial dilutions (1:3) of compounds were added to the wells. Plates were allowed to incubate for 72 h. A CellTiter^Glo™ cell viability kit from Promega was used to measure ATP content of cells treated with compounds following manufacturer's instruction. A decrease in the ATP content is a measure of decrease in cellular viability. The EC50 value—the concentration at which an agent reduces cell viability by 50% of the maximum effect—was determined using PRISM™ software, version 5.0 (GraphPad Software, La Jolla, Calif., USA).
# (§2) The compounds were tested against ADR, a multi-drug resistant breast cancer cell line as well as the H226, N87, and OVCAR3 cell lines.
# OVCAR3 cell line = assay: ATP luminescence (CellTiter-Glo) cell viability assay, OVCAR3; type: cell-based; conditions: Homo sapiens, read-out: EC50 (nM) OVCAR3
# Protocol: as §1, §2
# [1] = system: ADR multi-drug resistant breast cancer cell line; assay: ATP luminescence (CellTiter-Glo) cell viability assay, ADR; type: cell-based; conditions: 72 h, read-out: EC50 (nM) ADR
# Protocol: as §1, §2
# N87 cell line = assay: ATP luminescence (CellTiter-Glo) cell viability assay, N87; type: cell-based; conditions: 72 h, read-out: EC50 (nM) N87
# Protocol: as §1, §2
# cancer cells = conditions: antitumor activity, Nicolaou et al. 2007, 2008; cited from earlier work
# [2] = Chemical stability observed on preparation and storage; type: physicochemical; conditions: observation on handling and storage; both acid- and base-sensitive, slowly decomposed at −78° C
# [3] = NCI-H226, H226, 72 h, ATP content
# [4] = OVCAR-3, OVCAR3, 72 h, ATP content
# [5] = ADR multidrug resistant breast cancer cell line, ATP content
SMILES,EC50 (H226 cell line; [3]) [nM],EC50 (OVCAR3 cell line; [4]) [nM],"EC50 [1, 5] [nM]","EC50 (N87 cell line; N87, ATP content) [nM]",stability [2],further results
COc1cc2c(c(OC)c1CN)C(=O)c1c(O)cc3c(c1C2=O)N[C@H]1C#C/C=C\C#C[C@@H](O)[C@@]32O[C@@]12[C@@H](C)O,0.077,0.4,0.34,0.15,–,–
"C[C@@H](O)[C@@]12O[C@]13c1cc(O)c4c(c1N[C@H]2C#C/C=C\C#C[C@H]3O)C(=O)c1ccccc1C4=O [Compound 26a, Uncialamycin]",1.8,4.7,0.39,1.8,–,melting point: 175 °C (dec.); IC50 (cancer cells): picomolar
"C[C@@H](O)[C@@]12O[C@]13c1cc(O)c4c(c1N[C@H]2C#C/C=C\C#C[C@H]3O)C(=O)c1ccc(N)cc1C4=O [Compound 36a, 8-Amino-uncialamycin, reference compound]",2.4,7.4,0.67,2.7,–,–
"C[C@@H](O)[C@@]12O[C@]13c1cc(O)c4c(c1N[C@H]2C#C/C=C\C#C[C@H]3O)C(=O)c1ccc(CN)cc1C4=O [Compound 48aa, 8-Aminomethyl-uncialamycin]",0.028,0.32,0.02,0.011,extremely unstable,–
C[C@@H](O)[C@@]12O[C@]13c1cc(O)c4c(c1N[C@H]2C#C/C=C\C#C[C@@H]3O)C(=O)c1ccc(CN)cc1C4=O [Compound 48ab],0.051,0.28,0.054,0.023,–,–
"C[C@@H](O)[C@@]12O[C@]13c1cc(O)c4c(c1N[C@H]2C#C/C=C\C#C[C@H]3O)C(=O)c1cc(CN)ccc1C4=O [Compound 48ba, 7-Aminomethyl-uncialamycin]",0.012,0.066,0.029,0.01,extremely unstable,–
"C[C@@H](O)[C@@]12O[C@]13c1cc(O)c4c(c1N[C@H]2C#C/C=C\C#C[C@H]3O)C(=O)c1c(CN)cccc1C4=O [Compound 48ca, 6-Aminomethyl-uncialamycin]",–,–,–,–,extremely unstable,–
"C[C@@H](O)[C@@]12O[C@]13c1cc(O)c4c(c1N[C@H]2C#C/C=C\C#C[C@H]3O)C(=O)c1cccc(CN)c1C4=O [Compound 48da, 9-Aminomethyl-uncialamycin]",–,–,–,–,extremely unstable,–
"C[C@@H](O)[C@@]12O[C@]13c1cc(O)c4c(c1N[C@H]2C#C/C=C\C#C[C@H]3O)C(=O)c1cc2c(cc1C4=O)CNC2 [Compound 97, Isoindoline-uncialamycin 97]",–,–,–,–,extremely unstable,–
"CNCc1ccc2c(c1)C(=O)c1c(O)cc3c(c1C2=O)N[C@H]1C#C/C=C\C#C[C@@H](O)[C@@]32O[C@@]12[C@@H](C)O [Compound 108, N-methyl-8-aminomethyl-uncialamycin 108]",–,–,–,–,extremely unstable,–
C=CCOC(=O)N1c2c(cc(O)c3c2C(=O)c2ccc(CN)cc2C3=O)[C@@]23O[C@@]2([C@@H](C)O[Si](CC)(CC)CC)[C@@H]1C#C/C=C\C#C[C@H]3O [Compound 111],–,–,–,–,much more stable than 48aa,–
CC(C)[C@H](NC(=O)CCCCCN1C(=O)C=CC1=O)C(=O)N[C@@H](CCCNC(N)=O)C(=O)Nc1ccc(COC(=O)NCc2ccc3c(c2)C(=O)c2c(O)cc4c(c2C3=O)N[C@H]2C#C/C=C\C#C[C@@H](O)[C@@]43O[C@@]23[C@@H](C)O)cc1 [Compound 116],–,–,–,–,–,"EC50 (H226 cell line; NCI-H226, 72 h): 4.2 nM; EC50 (OVCAR3 cell line; OVCAR-3, 72 h): 16 nM; EC50 [1]: 3.3 nM; EC50 (N87 cell line): 8.7 nM"
